We go through 32 compounds from patent US20240018125A1, “CYCLIC ISOTHIOUREA DERIVATIVES AS CXCR4 MODULATORS” (ERMIUM THERAPEUTICS, priority 2020, published 2024).

Counter-ions that a name gives are not always drawn. Where only a bound is given, the exact number is not on record here.

The first assay has as its system peripheral blood mononuclear cells (PBMCs) from healthy donors. Description: IFN production by R848-activated PBMCs, quantified with twINNE luciferase reporter cell line. In kind it is cell-based, human. To be noted: Homo sapiens, PBMC; read-out: IC50 of anti-inflammatory activity (IFN production by activated PBMCs). As for the experimental part: The blood from healthy donors was obtained from “Etablissement Français du Sang” (convention #19/EFS/029), Paris, France.
In vitro experiments were performed using human peripheral blood mononuclear cells (PBMCs) isolated by density centrifugation from peripheral blood leukocyte separation medium, lymphoprep (Stemcell Technologies).
PBMCs were cultured in RPMI 1640 (Sigma-Aldrich, MO, USA) containing 10% heat-inactivated fetal bovine serum (Sigma-Aldrich, MO, USA) at 37° C./5% CO2.
The PBMCs used herein were prepared as described in part A “immune cells preparation”, above. PBMCs were seeded at 4.10^6/mL. Cells were pre-treated with different concentration of examples according to the invention. Cells were then stimulated with the TLR7/8 agonist resiquimod—R848 (Sigma-Aldrich, MO, USA) at 5 μg/mL.
To quantify the secretion of functional IFN, a biological assay based on a stable cell line where luciferase reporter gene is controlled by five Interferon-Stimulated Response Elements (twINNE cell line) was used. First, supernatants of R848-stimulated PBMCs (see part B above) were harvested after 24 h of stimulation and frozen at −20° C. for storage. Then, supernatants were dispensed in culture wells of a 96-well plate containing 35.103 twINNE cells per well in Dulbecco's Modified Eagle's Medium supplemented with 10% Foetal Bovine Serum, 100 U/mL Penicillin and 100 μg/mL Streptomycin (1% Pen-Strep) and 1 mM glutamine (Sigma-Aldrich, MO, USA) at 37° C./5% CO2. After 24 h of culture, luciferase activity was determined by adding 60 μL of Bright-Glo reagents (Promega, Wisconsin, USA) to culture wells and measuring bioluminescence with EnSpire Multimode Plate Reader (PerkinElmer, Massachusetts, USA). When stated, for IC50 calculation, dose-response curves fitted using the nonlin fit (variable slope) analysis in GraphPad Prism software (GraphPad Software, Califronia, USA).
IFN production was quantified (as specified in Materials and Methods, part C “quantification of interferon secretion”) using twINNE reporter cell line.
For `Clc1cccc2c1CN=C(SCC1=CSC3=NC(Cc4ccccc4)CN13)N2` (centres unmarked) [Example 118, 6-benzyl-3-(((5-chloro-1,4-dihydroquinazolin-2-yl)thio)methyl)-5,6-dihydroimidazo[2,1-b]thiazole dihydrochloride], the IC50 – broadly, the point on the concentration scale where inhibition reaches its midpoint – is at most 10 µM. Same read-out and setting: next, `C1=C(CSC2=N[C@@H](c3ccccc3)[C@H](c3ccccc3)N2)N2Cc3ccccc3CN=C2S1` [Example 24, 3-((((4S,5S)-4,5-diphenyl-4,5-dihydro-1H-imidazol-2-yl)thio)methyl)-5,10-dihydrobenzo[e]thiazolo[3,2-a][1,3]diazepine dihydrochloride]: at most 10 µM. In the case of `Clc1ccc(CC2CN3C(CSC4=NCc5ccccc5N4)=CSC3=N2)cc1` (centres unmarked) [Example 94, 6-(4-chlorobenzyl)-3-(((1,4-dihydroquinazolin-2-yl)thio)methyl)-5,6-dihydroimidazo[2,1-b]thiazole dihydrochloride], the IC50 was at most 10 µM.

`Clc1ccc2c(c1)CN=C(SCCN1CCCC1)N2` [Example 59, 6-chloro-2-((2-(pyrrolidin-1-yl)ethyl)thio)-1,4-dihydroquinazoline dihydrochloride]: the IC50 is at most 10 µM.

Regarding `Clc1cccc2c1NC(SCCCCN1CCCC1)=NC2` [Example 153, 8-chloro-2-((4-(pyrrolidin-1-yl)butyl)thio)-1,4-dihydroquinazoline dihydrochloride], the IC50 is at most 10 µM.

On to `C1=C(CSC2=NCc3ccccc3N2)N2CC(CCc3ccccc3)N=C2S1` (centres unmarked) [Example 126, 3-(((1,4-dihydroquinazolin-2-yl)thio)methyl)-6-phenethyl-5,6-dihydroimidazo[2,1-b]thiazole dihydrochloride], for which the IC50 is at most 10 µM. Regarding `CN1CCC(SC2=NCc3cc(Cl)ccc3N2)C1` (centres unmarked) [Example 103, 6-chloro-2-((1-methylpyrrolidin-3-yl)thio)-1,4-dihydroquinazoline dihydrochloride], the concentration for half-maximal inhibition (IC50) is at most 10 µM. The same measure, in the same setting: in the case of `Clc1ccccc1CC1CN2C(CSC3=NCc4ccccc4N3)=CSC2=N1` (centres unmarked) [Example 123, 6-(2-chlorobenzyl)-3-(((1,4-dihydroquinazolin-2-yl)thio)methyl)-5,6-dihydroimidazo[2,1-b]thiazole dihydrochloride] it was at most 10 µM. Still for that read-out and setting: next, `Clc1ccc2c(c1)CN1C(CSC3=NCc4ccc(Br)cc4N3)=CSC1=N2` [Example 66, 3-(((7-bromo-1,4-dihydroquinazolin-2-yl)thio)methyl)-7-chloro-5H-thiazolo[2,3-b]quinazoline dihydrochloride]: at most 10 µM; `CN1CCCC1CCSC1=NCC(Cc2ccccc2)N1` (centres unmarked) [Example 57, 5-benzyl-2-((2-(1-methylpyrrolidin-2-yl)ethyl)thio)-4,5-dihydro-1H-imidazole dihydrochloride]: above 32 µM; `CC(CCCSC1=NCc2cc(Cl)ccc2N1)N1CCCC1` (centres unmarked) [Example 162, 6-chloro-2-((4-(pyrrolidin-1-yl)pentyl)thio)-1,4-dihydroquinazoline dihydrochloride]: at most 10 µM. As to `CC1(c2ccccc2)CN=C(SCC2=CSC3=NCc4ccccc4CN23)N1` (centres unmarked) [Example 30, 3-(((5-methyl-5-phenyl-4,5-dihydro-1H-imidazol-2-yl)thio)methyl)-5,10-dihydrobenzo[e]thiazolo[3,2-a][1,3]diazepine dihydrochloride], the IC50 is at most 10 µM. Still for that read-out and setting: in the case of `C1=C(CSC2=NCCc3ccccc3N2)N2CC(Cc3ccccc3)N=C2S1` (centres unmarked) [Example 88, 6-benzyl-3-(((4,5-dihydro-1H-benzo[d][1,3]diazepin-2-yl)thio)methyl)-5,6-dihydroimidazo[2,1-b]thiazole dihydrochloride] it was at most 10 µM. Same read-out and setting: next, `C1=C(CSC2=NCc3ccccc3N2)N2Cc3ccccc3N=C2S1` [Example 12, 3-(((1,4-dihydroquinazolin-2-yl)thio)methyl)-5H-thiazolo[2,3-b]quinazoline dihydrochloride]: at most 10 µM. As for `c1ccc2c(c1)CCN=C(SCCN1CCCC1)N2` [Example 182, 2-((2-(pyrrolidin-1-yl)ethyl)thio)-4,5-dihydro-1H-benzo[d][1,3]diazepine dihydrochloride], the IC50 is 10 to 32 µM. Consider `C1=C(CSC2=NCc3ccccc3N2)N2C(=N[C@H]3CCCC[C@@H]32)S1` (relative stereo) [Example 13, trans-3-(((3,4-dihydroquinazolin-2-yl)thio)methyl)-4a,5,6,7,8,8a-hexahydrobenzo[4,5]imidazo[2,1-b]thiazole dihydrochloride], for which the IC50 is at most 10 µM.

On to `c1ccc2c(c1)CN=C(SCCN1C[C@H]3C[C@@H]1CO3)N2` (stereo in doubt) [Example 146, (1R,4R)-5-(2-((1,4-dihydroquinazolin-2-yl)thio)ethyl)-2-oxa-5-azabicyclo[2.2.1]heptane dihydrochloride], for which the IC50 was 10 to 32 µM. The same measure, in the same setting: next, `c1ccc2c(c1)CN=C(SCCN1CCCC1)NC2` [Example 186, 3-((2-(pyrrolidin-1-yl)ethyl)thio)-2,5-dihydro-1H-benzo[e][1,3]diazepine dihydrochloride]: above 32 µM; `c1ccc2c(c1)CN=C(SCc1ccncc1)NC2` [Example 189, 3-((pyridin-4-ylmethyl)thio)-2,5-dihydro-1H-benzo[e][1,3]diazepine dihydrochloride]: above 32 µM.

Regarding `Clc1ccc2c(c1)CN1C(CSC3=NCc4cc(Cl)ccc4N3)=CSC1=N2` [Example 44, 7-chloro-3-(((6-chloro-1,4-dihydroquinazolin-2-yl)thio)methyl)-5H-thiazolo[2,3-b]quinazoline dihydrochloride], the IC50 is above 32 µM. For `CN1CCCC1CCCSC1=NCc2cc(Cl)ccc2N1` (centres unmarked) [Example 174, 6-chloro-2-((3-(1-methylpyrrolidin-2-yl)propyl)thio)-1,4-dihydroquinazoline dihydrochloride], the IC50 is at most 10 µM. The same measure, in the same setting: next, `CC1(C)CN2C(CSC3=NCc4ccc(Cl)cc4N3)=CSC2=N1` [Example 6, 3-(((7-chloro-1,4-dihydroquinazolin-2-yl)thio)methyl)-6,6-dimethyl-5,6-dihydroimidazo[2,1-b]thiazole dihydrochloride]: at most 10 µM. Still for that read-out and setting: in the case of `Clc1ccc(C2CN3C(CSC4=NCc5ccccc5N4)=CSC3=N2)cc1` (centres unmarked) [Example 14, 6-(4-chlorophenyl)-3-(((3,4-dihydroquinazolin-2-yl)thio)methyl)-5,6-dihydroimidazo[2,1-b]thiazole dihydrochloride] it was at most 10 µM; in that of `CC1(C)CN=C(SCC2=CSC3=Nc4cc(Cl)ccc4CN23)N1` [Example 9, 8-chloro-3-(((5,5-dimethyl-4,5-dihydro-1H-imidazol-2-yl)thio)methyl)-5H-thiazolo[2,3-b]quinazoline dihydrochloride], 10 to 32 µM; in that of `C1=C(CSC2=NCc3ccccc3N2)N2CCc3ccccc3N=C2S1` [Example 35, 3-(((3,4-dihydroquinazolin-2-yl)thio)methyl)-5,6-dihydrobenzo[d]thiazolo[3,2-a][1,3]diazepine dihydrochloride], at most 10 µM. The same measure, in the same setting: next, `Clc1ccc2c(ccn2CCSC2=NCc3ccccc3N2)c1` [Example 74, 2-((2-(5-chloro-1H-indol-1-yl)ethyl)thio)-3,4-dihydroquinazoline hydrochloride]: above 32 µM. Regarding `CN1CCN=C1SCC1=CSC2=Nc3ccccc3CN12` [Example 36, 3-(((1-methyl-4,5-dihydro-1H-imidazol-2-yl)thio)methyl)-5H-thiazolo[2,3-b]quinazoline dihydrochloride], the 50% inhibitory concentration (IC50) is at most 10 µM. Still for that read-out and setting: in the case of `C1CCC2NC(SCCN3CCCC3)=NCC2C1` (centres unmarked) [Example 184, 2-((2-(pyrrolidin-1-yl)ethyl)thio)-1,4,4a,5,6,7,8,8a-octahydroquinazoline dihydrochloride] it was above 32 µM. On the same count and under the same terms, in the case of `c1ccc(CC2CN=C(SCCN3CCCC3)N2)cc1` (centres unmarked) [Example 54, 5-benzyl-2-((2-(pyrrolidin-1-yl)ethyl)thio)-4,5-dihydro-1H-imidazole dihydrochloride] it was 10 to 32 µM; in that of `CN1CCCC1CSC1=NCC(Cc2ccccc2)N1` (centres unmarked) [Example 53, 5-benzyl-2-(((1-methylpyrrolidin-2-yl)methyl)thio)-4,5-dihydro-1H-imidazole dihydrochloride], 10 to 32 µM.

As to `c1ccc2c(c1)NC(SCCCCN1CCCC1)=NC21CC1` [Example 180, 2′-((4-(pyrrolidin-1-yl)butyl)thio)-1′H-spiro[cyclopropane-1,4′-quinazoline] dihydrochloride], the 50% inhibitory concentration (IC50) was 10 to 32 µM.

The assay is the same for the next values; noted with them: PBMCs from 2 healthy donors, R848 5 μg/mL, IFN in supernatant by twINNE luciferase reporter; IT1t value is mean of at least 7 independent sets; read-out: IC50 of anti-inflammatory activity (IFN production by activated PBMCs).
On to `CC1(C)CN2C(CSC(=NC3CCCCC3)NC3CCCCC3)=CSC2=N1` [IT1t, reference compound], for which the IC50 was determined as 32 µM.
